Experiments:
CK2 = molecular target: CK2; set-up: method as in PMID 33807474; conditions: Figure 1, representative CK2 inhibitors; cited from earlier work
[1] = molecular target: T1, human CK2 holoenzyme (CK2α2β2) (Homo sapiens, UniProt P68400); test: P81 filter isotopic (radiometric) kinase assay, CK2 holoenzyme; type: biochemical; conditions: substrate peptide […], Ki from IC50 by Cheng–Prusoff
T1 construct: made in house
Experimental: (§1) The obtained compounds were tested for their inhibitory activity toward human CK2α, human CK2 holoenzyme, and PIM-1 using a P81 filter isotopic assay as described previously. […] The experimental data were fitted to the sigmoidal dose–response equation, i.e., (variable slope) Y = Bottom + (Top-Bottom)/(1 + 10^((LogIC50−X)∗HillSlope), in GraphPad Prism (Prism 9, v. 9.0.1).
(§2) Inhibition of the human CK2 catalytic subunit (CK2α), CK2 holoenzyme (CK2α2β2), and PIM-1 by the newly obtained compounds was evaluated using a radiometric assay (Table 1, Figure S2). The synthetic peptide […] was used as the substrate of CK2, and peptide […] was used as the substrate of PIM-1. The values of the inhibition constant (Ki) were calculated using the Cheng–Prusoff equation: Ki = IC50/(1 + [S]/Km).

[2] = tested on: K-562 (chronic myelogenous leukemia); test: MTT-based viability assay, K-562; type: cell-based, human; conditions: for IC50: Homo sapiens, K562, MTT, 48 h, read-out: IC50 K-562; for SI (selectivity index) K-562: IC50 Vero/IC50 cancer cells
Experimental: (§3) After incubation with the tested compounds, an MTT test was performed as described previously. Optical densities were measured at 570 nm using a BioTek microplate reader (BioTek Instruments, Inc., Winooski, VT, USA). All measurements were carried out in a minimum of three biological replicates.
(§4) . The IC50 values describing the half-maximal effective concentration of each tested compound were calculated and are summarized in Table 2. […].

MCF-7 (breast carcinoma) = test: MTT-based viability assay, MCF-7; type: cell-based, human; conditions: for IC50: Homo sapiens, MCF7, MTT, 48 h, read-out: IC50 MCF-7; for SI (selectivity index) MCF-7: IC50 Vero/IC50 cancer cells
Experimental: as §3, §4

[3] = tested on: CCRF-CEM (acute lymphoblastic leukemia); test: MTT-based viability assay, CCRF-CEM; type: cell-based, human; conditions: for IC50: Homo sapiens, CCRF-CEM, MTT, 48 h, read-out: IC50 CCRF-CEM; for SI (selectivity index) CCRF-CEM: IC50 Vero/IC50 cancer cells
Experimental: as §3, §4

Vero cells = test: MTT-based viability assay, non-cancerous Vero cells; type: cell-based, Cercopithecus aethiops; conditions: Chlorocebus sabaeus, MTT, 48 h, read-out: IC50 Vero
Experimental: as §3, §4

PIM-1 = molecular target: T2, PIM-1 (Homo sapiens, UniProt P11309); test: P81 filter isotopic (radiometric) kinase assay, PIM-1; type: biochemical; conditions: substrate peptide […], Ki from IC50 by Cheng–Prusoff
T2 construct: made in house
Experimental: as §1, §2

human CK2α = molecular target: T3, human CK2α (Homo sapiens, UniProt P68400); test: P81 filter isotopic (radiometric) kinase assay, CK2 catalytic subunit; type: biochemical; conditions: substrate peptide […], Ki from IC50 by Cheng–Prusoff
T3 construct: made in house
Experimental: as §1, §2

CK2-α = molecular target: CK2-α; set-up: method as in PMID 23360763, PMID 24442476, PMID 34200807; conditions: Figure 1, dual CK2/PIM-1 inhibitors; cited from earlier work
PIM1 = molecular target: PIM1; set-up: method as in PMID 23360763, PMID 24442476, PMID 34200807; conditions: Figure 1, dual CK2/PIM-1 inhibitors; cited from earlier work

T2 sequence (P11309 whole entry): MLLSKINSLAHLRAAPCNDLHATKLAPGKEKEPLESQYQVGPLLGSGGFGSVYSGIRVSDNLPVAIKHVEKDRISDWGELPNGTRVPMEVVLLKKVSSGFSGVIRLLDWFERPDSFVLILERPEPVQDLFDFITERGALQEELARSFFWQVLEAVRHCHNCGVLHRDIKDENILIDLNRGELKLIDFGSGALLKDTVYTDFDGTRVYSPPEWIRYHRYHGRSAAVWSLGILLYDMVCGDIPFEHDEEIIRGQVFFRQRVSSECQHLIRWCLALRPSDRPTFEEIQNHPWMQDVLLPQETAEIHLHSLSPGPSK
T1 sequence (P68400 whole entry): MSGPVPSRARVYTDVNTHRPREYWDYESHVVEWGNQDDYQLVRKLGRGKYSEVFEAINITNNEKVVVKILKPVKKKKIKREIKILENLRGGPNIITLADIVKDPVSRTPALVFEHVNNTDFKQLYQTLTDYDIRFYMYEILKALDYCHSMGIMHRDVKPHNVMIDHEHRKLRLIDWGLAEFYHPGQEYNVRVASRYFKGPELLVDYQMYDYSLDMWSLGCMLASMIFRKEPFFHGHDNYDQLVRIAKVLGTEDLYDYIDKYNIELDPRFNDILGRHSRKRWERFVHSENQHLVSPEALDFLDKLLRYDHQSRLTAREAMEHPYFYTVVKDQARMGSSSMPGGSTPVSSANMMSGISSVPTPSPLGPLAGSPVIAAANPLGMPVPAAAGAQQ
T1 sequence (P67870 whole entry partner): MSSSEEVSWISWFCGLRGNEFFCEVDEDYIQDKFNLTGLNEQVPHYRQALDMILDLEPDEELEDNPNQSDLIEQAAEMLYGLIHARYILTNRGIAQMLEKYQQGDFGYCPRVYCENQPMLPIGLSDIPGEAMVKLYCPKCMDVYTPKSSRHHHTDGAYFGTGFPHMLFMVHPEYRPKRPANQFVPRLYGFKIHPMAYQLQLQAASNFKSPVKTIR
T3 sequence (P68400 whole entry): as the sequence (P68400 whole entry) above

Row | Compound | Ki (CK2) | Ki [1] | IC50 [2] | SI (selectivity index) K-562 [2] | IC50 (MCF-7 (breast carcinoma)) | SI (selectivity index) MCF-7 (MCF-7 (breast carcinoma)) | IC50 [3] | SI (selectivity index) CCRF-CEM [3] | IC50 (Vero cells) | Ki (PIM-1) | Ki (human CK2α) | Ki (CK2-α) | Ki (PIM1)
1 | 4,5,6,7-tetrabromo-2,3-dihydro-1H-1,3-benzodiazol-2-one [Compound K37] | 0.07 µM |  |  |  |  |  |  |  |  |  |  |  | 
2 | CC(O)CNc1nc2c(Br)c(Br)c(Br)c(Br)c2[nH]1 (racemic) [rac-5, 1-[(4,5,6,7-Tetrabromo-1H-benzimidazol-2-yl)amino]propan-2-ol] |  | 0.127 µM | 38.7 ± 8.08 µM | 0.58 | 16.9 ± 0.3 µM | 1.34 | 21.7 ± 0.86 µM | 1.04 | 22.58 ± 0.13 µM | 0.064 µM | 0.296 µM |  | 
3 | CCN(CC)CC(O)CNc1nc2c(Br)c(Br)c(Br)c(Br)c2[nH]1 (racemic) [rac-9, 1-(Diethylamino)-3-[(4,5,6,7-tetrabromo-1H-benzimidazol-2-yl)amino]propan-2-ol] |  | 0.605 µM | 11.6 ± 2.85 µM | 1.03 | 10.8 ± 0.23 µM | 1.11 | 13.6 ± 0.84 µM | 0.88 | 12 ± 0.21 µM | 0.267 µM | 1.67 µM |  | 
4 | OCC(O)CNc1nc2c(Br)c(Br)c(Br)c(Br)c2[nH]1 (racemic) [rac-11, 3-[(4,5,6,7-Tetrabromo-1H-benzimidazol-2-yl)amino]propane-1,2-diol] |  | 0.089 µM | 41.5 ± 8.45 µM | 1.00 | 17.2 ± 0.39 µM | 2.41 | 33.8 ± 0.26 µM | 1.23 | 41.53 ± 0.1 µM | 0.073 µM | 0.151 µM |  | 
5 | C[C@@H](O)CNc1nc2c(Br)c(Br)c(Br)c(Br)c2[nH]1 [(R)-5, (2R)-1-[(4,5,6,7-tetrabromo-1H-benzimidazol-2-yl)amino]propan-2-ol] |  | 0.104 µM | 39.6 ± 8.11 µM | 0.71 | 16.1 ± 0.19 µM | 1.76 | 22.31 ± 0.1 µM | 1.27 | 28.3 ± 0.43 µM | 0.089 µM | 0.394 µM |  | 
6 | C[C@H](O)CNc1nc2c(Br)c(Br)c(Br)c(Br)c2[nH]1 [(S)-5, (2S)-1-[(4,5,6,7-tetrabromo-1H-benzimidazol-2-yl)amino]propan-2-ol] |  | 0.167 µM | 39.3 ± 9.05 µM | 0.64 | 16.6 ± 0.3 µM | 1.52 | 23.2 ± 4.01 µM | 1.11 | 25.2 ± 0.54 µM | 0.099 µM | 0.271 µM |  | 
7 | OCCCNc1nc2c(Br)c(Br)c(Br)c(Br)c2[nH]1 [Compound 7, 3-[(4,5,6,7-Tetrabromo-1H-benzimidazol-2-yl)amino]propan-1-ol] |  | 0.114 µM | 33.7 ± 4.92 µM | 0.87 | 18.2 ± 0.3 µM | 1.62 | 25.6 ± 0.54 µM | 1.15 | 29.46 ± 0.12 µM | 0.082 µM | 0.156 µM |  | 
8 | CN(CCO)c1nc2c(Br)c(Br)c(Br)c(Br)c2[nH]1 [Compound 8, 2-[Methyl(4,5,6,7-tetrabromo-1H-benzimidazol-2-yl)amino]ethanol] |  | 0.072 µM | 40 ± 7.45 µM | 0.40 | 15.1 ± 0.39 µM | 1.06 | 17.4 ± 0.27 µM | 0.92 | 16.1 ± 0.27 µM | 0.071 µM | 0.256 µM |  | 
9 | OCC(CO)Nc1nc2c(Br)c(Br)c(Br)c(Br)c2[nH]1 [Compound 10, 2-[(4,5,6,7-Tetrabromo-1H-benzimidazol-2-yl)amino]propane-1,3-diol] |  | 0.124 µM | 38.1 ± 5.56 µM | 0.66 | 16.6 ± 0.23 µM | 1.51 | 24.47 ± 0.21 µM | 1.03 | 25.19 ± 0.1 µM | 0.093 µM | 0.139 µM |  | 
10 | O=c1[nH]c2c(Br)c(Br)c(Br)c(Br)c2[nH]1 [Compound K32, 4,5,6,7-tetrabromo-2,3-dihydro-1H-1,3-benzodiazol-2-one] | 0.15 µM |  |  |  |  |  |  |  |  |  |  |  | 
11 | OC[C@H]1O[C@@H](n2cnc3cc(Cl)c(Cl)cc32)[C@H](O)[C@@H]1O [DRB, 5,6-dichloro-1-β-D-ribofuranosylbenzimidazole] | 23 µM |  |  |  |  |  |  |  |  |  |  |  | 
12 | Cc1nc2c(Br)c(Br)c(Br)c(Br)c2n1CCCO [N^1-PrOH-2-MeTBBi, 3-(4,5,6,7-tetrabromo-2-methyl-1H-1,3-benzodiazol-1-yl)propan-1-ol] |  |  |  |  |  |  |  |  |  |  |  | 0.05 µM | 0.15 µM
13 | Brc1c(Br)c(Br)c2[nH]cnc2c1Br [TBBi, 4,5,6,7-tetrabromo-1H-benzimidazole] | 0.3 µM |  |  |  |  |  |  |  |  |  |  |  | 
14 | OC[C@H]1O[C@@H](n2cnc3c(Br)c(Br)c(Br)c(Br)c32)C[C@@H]1O [TDB (K164), 1-(β-D-2′-deoxyribofuranosyl)-4,5,6,7-tetrabromo-1H-benzimidazole] |  |  |  |  |  |  |  |  |  |  |  |  | 0.04 µM

— PMC10385865, “Synthesis and Anticancer Activity of Novel Dual Inhibitors of Human Protein Kinases CK2 and PIM-1” (Pharmaceutics, 2023)
